Holding throughout (test): DTP human tumour cell line panel, 48 h
Assay [1] has as its system OVCAR-3 ovarian.
The test system of assay [2] is IGROV1 ovarian.
Assay [3] concerns ACHN renal.
In assay [4] the test system is HS 578T breast.
In assay [5] the test system is UACC-257 melanoma.
Assay [6] relates to SNB-19 CNS.
The subject of assay [7] is TK-10 renal.
Assay [8] concerns T-47D breast.
For assay [9], the system named is A498 renal.
Assay [10] relates to SK-MEL-2 melanoma.

Several values for one entry are separate records, joined by “and”; a condition that tells them apart may be missing. Equal values may be shown once.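 How tested: cells in 96-well plates exposed to compound for 48 hours at five concentrations. GI50: concentration for 50% inhibition of growth. At the TGI there is no net growth.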

The GI50 is the concentration that inhibits growth by half. Broadly, the TGI is the concentration giving total growth inhibition. High values mean less potent growth arrest, low ones more potent growth arrest.

Regarding `CC1=C(C#N)C23C(=O)N(c4ccccc4)C(=O)C2=C(O)C=CC3(O)N1Cc1ccc(Cl)cc1Cl` (stereo not given), the GI50 in assay [1] was 2.89 µM; in [2], 2.86 µM; in assay [3], 12.6 µM; in assay [4] it was 3.13 µM; in [5] it was 13.2 µM; in assay [6], 3.8 µM. Besides, the GI50 in assay [7] was 2.79 µM; in assay [8], 2.93 µM; in [9], 5.79 µM; in assay [10] it was 2.98 µM. In addition, the TGI in assay [1] was found to be 4.96 µM; in assay [2], 7.19 µM; in assay [3] it was 25.2 µM; in assay [4], 11.6 µM; in [5] it was 27 µM; in assay [6], 14.9 µM. Besides, the TGI was determined as 11.9 µM in assay [7], 14.6 µM in assay [8], 18.1 µM in assay [9] and 11.5 µM in assay [10].

Consider `CCN1CCN(CCNc2nccc(-c3c(-c4ccc(F)c(O)c4)nc4occn34)n2)S1(=O)=O`, for which the GI50 in [1] is 4.44 µM; in assay [2], 4.06 µM; in assay [3], 3.44 µM; in assay [4] it was 6.75 µM; in assay [5] it was 5.15 µM; in assay [6], more than 100 µM. Besides, the GI50 was 35.6 µM in [7], 2.13 µM in assay [8], 5.15 µM in assay [9] and 3.98 µM in assay [10]. Also, the total growth inhibition concentration (TGI) in assay [1], in assay [2], in assay [3], in assay [4], in assay [5] and in assay [6] was more than 100 µM in each case. The concentration for total growth inhibition (TGI) was more than 100 µM in assay [7], 24.6 µM in assay [8], more than 100 µM in assay [9] and more than 100 µM in [10].

On to `Cn1ncc(Cl)c1-c1cc(C(=O)N[C@H](CN)Cc2cccc(F)c2)sc1Cl`, for which the GI50 in [1] was 1.18 µM and 2.8 µM; in [2] it was 0.0387 µM and 0.0478 µM; in [3] it was 2.57 µM and 2.76 µM; in [4] it was 0.2 µM and 0.339 µM; in assay [5] it was 1.44 µM and 2.88 µM; in [6], 0.34 µM and 0.783 µM. For the same molecule, the GI50 was 0.531 µM and 1.73 µM in assay [7]; 0.0272 µM and 0.0492 µM in assay [8]; 0.126 µM and 0.104 µM in assay [9]; 1.98 µM and 4.65 µM in [10]. In addition, the concentration for total growth inhibition (TGI) in assay [1] was > 10 µM and 15.4 µM; in assay [2], 2.65 µM and 4.18 µM; in assay [3], > 10 µM and 15.4 µM; in assay [4], 2.98 µM and 3.27 µM; in assay [5] it was 3.71 µM and 9.91 µM; in assay [6], 1.87 µM and 13.4 µM. Also, the TGI is 5.76 µM and 14.3 µM in assay [7]; 1.48 µM in assay [8]; 0.705 µM and 0.779 µM in assay [9]; > 6.11 µM and 12.3 µM in [10].

With `O=C(c1c(F)c(F)c(F)c(F)c1F)c1c(F)c(F)c(F)c(F)c1F`, the TGI in assay [1] is 2.43 µM; in assay [2] it was 2.64 µM; in assay [3], 3.09 µM; in assay [4] it was more than 26.6 µM; in [5], 4.65 µM; in assay [6], 16.3 µM. Moreover, the TGI in assay [7] was 2.47 µM; in assay [8], more than 100 µM; in assay [9] it was 9.16 µM; in assay [10] it was 7.02 µM.

With `COc1cc2nc(N3CCCN(C)CC3)nc(NC3CCN(Cc4ccccc4)CC3)c2cc1OC`, the GI50 in [1] was 3.17 µM; in assay [2], 7.33 µM; in assay [3], 2.25 µM; in assay [4], 2.04 µM; in assay [5], 1.74 µM; in assay [6], 4.28 µM. The GI50 in assay [7] is 1.88 µM; in [8], 2.53 µM; in assay [9], 0.904 µM; in [10] it was 2.08 µM. In addition, the total growth inhibition concentration (TGI) in assay [1] amounted to 9.41 µM; in [2], 25.3 µM; in [3], 5.13 µM; in [4] it was 5.59 µM; in assay [5] it was 3.36 µM; in assay [6], 18.1 µM. Further, the total growth inhibition concentration (TGI) in [7] stood at 4.02 µM; in assay [8] it was 6.25 µM; in assay [9], 7.66 µM; in [10] it was 4.25 µM.

Consider `COc1ccc2c(c1)CCC1C2CC[C@@]2(C)C1CC[C@@H]2NC(=O)Cc1ccc(O)c(O)c1` (stereo not given in full), for which the GI50 in assay [1] is 3.7 µM; in assay [2], 2.29 µM; in assay [3] it was 6.01 µM; in assay [4], 7.22 µM; in assay [5] it was 17 µM; in assay [6], 13.3 µM. Also, the GI50 is 8.86 µM in assay [7], 6.91 µM in assay [8], 18.8 µM in assay [9] and 15.2 µM in [10]. The total growth inhibition concentration (TGI) in assay [1] was determined as 19.2 µM; in assay [2] it was 7.68 µM; in [3], 18.9 µM; in assay [4] it was 43.9 µM; in assay [5], 30.8 µM; in assay [6], 33.4 µM. In addition, the concentration for total growth inhibition (TGI) in assay [7] was 22.1 µM; in [8] it was 72.8 µM; in [9], 33.7 µM; in assay [10] it was 33.8 µM.

With `COc1ccccc1C#Cc1ccccc1C#Cc1ccc(OCCCCCCOc2ccccc2C#Cc2ccccc2C#Cc2ccccc2OC)cc1`, the GI50 in assay [1], in assay [2], in assay [3], in assay [4], in [5] and in assay [6] was more than 100 µM each time. The GI50 in assay [7], in [8], in assay [9] and in assay [10] was more than 100 µM throughout. For the same molecule, the TGI in assay [1], in [2], in assay [3], in assay [4], in assay [5] and in [6] was more than 100 µM in each case. The total growth inhibition concentration (TGI) in assay [7], in assay [8], in [9] and in assay [10] was more than 100 µM in each case.

As to `Cc1ccc2c(C(C[N+](=O)[O-])c3ccccc3)c(-c3ccccc3)[nH]c2c1` (stereo not given), the GI50 was 16.3 µM in [1]; 13.4 µM in assay [2]; 57.2 µM in [3]; 16.8 µM in assay [4]; 29.3 µM in assay [5]; 43.7 µM in assay [6]. For the same molecule, the GI50 in assay [7] is more than 95 µM; in [8], 26.4 µM; in [9], 24.9 µM; in assay [10] it was 46.3 µM. Also, the TGI in [1] was more than 95 µM; in [2] it was more than 95 µM; in [3], more than 95 µM; in assay [4], 94.3 µM; in assay [5], more than 95 µM; in assay [6], more than 95 µM. Moreover, the concentration for total growth inhibition (TGI) in assay [7], in [8], in assay [9] and in assay [10] was more than 95 µM in each case.

In the case of `NC(=O)c1cc(N2CC2)c([N+](=O)[O-])cc1[N+](=O)[O-]`, the GI50 in [1], in [2], in [3], in [5] and in assay [6] was more than 200 µM each time. Also, the concentration for total growth inhibition (TGI) in assay [1], in assay [2], in assay [3], in [4], in assay [5] and in assay [6] was more than 200 µM throughout. In addition, the total growth inhibition concentration (TGI) in assay [7] is more than 200 µM; in assay [8] it was more than 200 µM; in [9], 200 µM; in assay [10] it was more than 20 µM.

Regarding `CC1(C)N=C(N)N=C(N)N1c1ccc(CNC(=O)Nc2ccc(S(=O)(=O)F)c(Cl)c2)c(Cl)c1`, the GI50 in [1] was 6.34 µM; in [2], 0.0805 µM; in assay [3], 5.28 µM; in assay [4] it was 21.8 µM; in assay [5], 5.11 µM; in [6], 3.64 µM. The GI50 in [7] is 8.39 µM; in assay [8], 11.6 µM; in assay [9], 9.5 µM; in [10], 12.2 µM. Besides, the TGI in [1], in assay [2], in assay [3], in assay [4], in assay [5] and in assay [6] was more than 100 µM each time. Besides, the TGI is more than 100 µM in [7], more than 100 µM in assay [8], more than 100 µM in assay [9] and more than 74.9 µM in [10].

Take `Cc1c(Cn2c(C)nc3c(C(=O)O)cc(N4CCOCC4)cc32)cccc1C(F)(F)F`: the GI50 is 52.3 µM in [1]; 40.2 µM in [2]; 8.73 µM in assay [3]; 50.5 µM in [4]; 61.1 µM in assay [5]; more than 100 µM in assay [6]. Moreover, the GI50 in assay [7] was 34 µM; in assay [8], 36.7 µM; in [9], 0.0339 µM; in assay [10], 96.9 µM. Further, the TGI in assay [1], in assay [2], in assay [3], in assay [4], in [5] and in assay [6] was more than 100 µM in each case. Besides, the concentration for total growth inhibition (TGI) is more than 100 µM in assay [7], more than 100 µM in [8], 0.319 µM in [9] and more than 100 µM in assay [10].

Take `CC1=C([Te]c2ccccc2)C(=O)c2ccccc2C1=O`: the GI50 is 1.04 µM in [1]; 0.5 µM in assay [2]; 0.454 µM in [3]; 0.303 µM in assay [4]; 2.23 µM in assay [5]; 0.551 µM in [6]. Moreover, the GI50 is 1.71 µM in assay [7], 0.488 µM in assay [8], 0.239 µM in assay [9] and 2.37 µM in [10]. Further, the TGI is 2.23 µM in [1]; 1.82 µM in [2]; 1.61 µM in assay [3]; 2.46 µM in [4]; 5.92 µM in assay [5]; 2.56 µM in assay [6]. The concentration for total growth inhibition (TGI) turned out to be 4.05 µM in [7], 2.78 µM in [8], 0.977 µM in assay [9] and 5.58 µM in assay [10].

For the molecule `Cc1cc(OCc2nnc3n2S(=O)(=O)c2ccccc2N3C)ccc1Cl`, the TGI in assay [1] was 57.2 µM; in [2] it was more than 100 µM; in assay [3], 53 µM; in [4] it was more than 100 µM; in [5], more than 100 µM; in assay [6], 39.1 µM. Further, the TGI in assay [7] was more than 100 µM; in assay [8], more than 100 µM; in [9], 55.3 µM; in assay [10], more than 100 µM.

As to `O=C1c2c(c(=O)[nH]c3ccccc23)[C@H](c2ccccc2)[C@@H]2CCCN12`, the GI50 is 2.46 µM in assay [1]; 3.59 µM in assay [2]; 2.64 µM in [3]; 2.89 µM in assay [4]; 5.13 µM in assay [5]; 3.93 µM in assay [6]. Further, the GI50 in [7] was 20.5 µM; in assay [8], 3.46 µM; in assay [9], 1.93 µM; in [10] it was 4.17 µM. For the same molecule, the TGI in [1] is 7.1 µM; in assay [2], 15.6 µM; in assay [3], 14.9 µM; in [4], 11.1 µM; in assay [5] it was 53 µM; in assay [6] it was more than 100 µM. For the same molecule, the TGI was more than 100 µM in assay [7], 9.2 µM in [8], 9.09 µM in assay [9] and 46.7 µM in assay [10].

Regarding `CCCc1nn(C)c2c(=O)[nH]c(-c3cc(S(=O)(=O)N4CCN(C)CC4)ccc3OCC)nc12`, the GI50 in [1] is more than 100 µM; in assay [2], 91.4 µM; in assay [3], more than 100 µM; in assay [4] it was 21.6 µM; in assay [5], more than 100 µM; in assay [6], more than 100 µM. Also, the GI50 is 94.3 µM in assay [7], more than 100 µM in [8], 25.6 µM in assay [9] and more than 100 µM in assay [10]. The TGI in [1], in assay [2], in assay [3], in assay [4], in assay [5] and in assay [6] was more than 100 µM throughout. Further, the TGI in [7], in [8], in assay [9] and in [10] was more than 100 µM throughout.

These data come from PubChem BioAssay (NCI).
